What was measured:
A549 cells = assay: Cellular cytotoxicity (Celltiter 96 Aqueous One Solution, MTS); format: cell-based; conditions: 61 h incubation period as printed, MTS absorbance 490 nm
Source text: The cytotoxic or cytostatic properties of compounds of formula (1) and corresponding etoposide compounds can be assessed for example, by use, for example, of this assay. The Celltiter 96® Aqueous One Solution Cell Proliferation Assay kit (Promega Corporation, USA) which is a colorimetric method for determining the number of viable cells in proliferation or cytotoxicity assays was used. In this assay the MTS tetrazolium compound (Owen's Reagent) is bioreduced by viable cells into a coloured formazan product which is soluble in tissue culture medium and can be measured by recording absorbance at 490 nm with a 96 well plate reader. A549 cells were seeded in Eagles Minimum Essential Medium supplemented with 10% foetal calf serum and non-essential amino acids at 10^3 cell per well on a 96 well plate and allowed to attach for 24 h. Compounds were dissolved in DMSO and diluted with cell culture medium before addition. […] The MTS reagent was added to each well, left for 4 h, then the absorbance measured at 490 nm with a 96 well plate reader.

[1] = Metabolism in tumour homogenates; format: in vitro ADME; conditions: 5 μmol dm^−3 prodrug, NADPH, pH 7.4, 37° C.
Procedure: Useful bioreductive prodrugs can be shown to release the active drug selectively under conditions of low oxygen in the presence of tumour homogenate in this assay. Freshly-excised CaNT tumours (approximately 0.5 to 1 g) were homogenised in 15 ml of ice-cold 50 mmol din^−3 potassium phosphate buffer at pH 7.4.

human P450 reductase = biological target: T1, human P450 reductase (Homo sapiens, UniProt P16435); assay: Drug release by human cytochrome P450 reductase; format: biochemical; conditions: NADPH, pH 7.4, 37° C.
T1 construct: purchased Gentest or Cypex P244 (Gentest) or Cyp004 (Cypex)
T1 sequence (P16435 1-677): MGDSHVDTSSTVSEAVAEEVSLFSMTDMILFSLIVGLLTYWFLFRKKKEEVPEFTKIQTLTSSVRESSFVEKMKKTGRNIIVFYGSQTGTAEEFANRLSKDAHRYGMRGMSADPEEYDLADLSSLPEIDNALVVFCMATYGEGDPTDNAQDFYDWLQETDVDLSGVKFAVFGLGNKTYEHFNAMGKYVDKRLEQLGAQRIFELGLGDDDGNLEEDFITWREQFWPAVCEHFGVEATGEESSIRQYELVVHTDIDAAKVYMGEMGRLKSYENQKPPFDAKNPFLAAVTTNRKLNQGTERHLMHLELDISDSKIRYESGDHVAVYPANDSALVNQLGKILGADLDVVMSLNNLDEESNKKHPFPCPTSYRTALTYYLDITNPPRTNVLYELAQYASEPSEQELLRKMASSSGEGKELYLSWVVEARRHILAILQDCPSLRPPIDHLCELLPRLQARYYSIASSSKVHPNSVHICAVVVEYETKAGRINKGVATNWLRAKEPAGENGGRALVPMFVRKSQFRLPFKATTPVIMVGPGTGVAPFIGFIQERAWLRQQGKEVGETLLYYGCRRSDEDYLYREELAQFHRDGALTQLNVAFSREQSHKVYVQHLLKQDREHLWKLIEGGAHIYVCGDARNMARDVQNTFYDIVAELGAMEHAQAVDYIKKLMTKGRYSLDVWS
Procedure: Cytochrome p450 reductase is widely expressed in human tumours as well as in a range of normal tissues and is one of a number of enzymes that can catalyse bioreduction. […] For experiments under nitrogen the mixture was degassed with nitrogen for 20 minutes prior to compound addition and overgassed with nitrogen during the incubation.

[2] = 5 μmol dm^−3 prodrug, NADPH, pH 7.4, 37° C.
Procedure: Freshly-excised mouse liver (approximately 1 g) was homogenised in 15 ml of ice-cold 50 mmol dm^−3 potassium phosphate buffer at pH 7.4. The homogenates were centrifuged at 1000 RPM for 10 min and the supernatants stored on ice. The metabolism of 5 µmol dm^−3 prodrug in air was performed with 0.5 ml liver homogenate (˜2 mg of protein by Bradford assay) with 100 µmol dm^−3 NADPH in 50 mmol dm^−3 potassium phosphate buffer at pH 7.4 incubated at 37° C. Samples (60 µl) were taken at regular intervals and added to an equivalent volume of acetonitrile, then mixed and centrifuged at 14, 300 RPM for 2 min prior to product analysis by HPLC.

With COc1cc([C@@H]2c3cc4c(cc3[C@@H](O[C@@H]3O[C@@H]5CO[C@@H](C)O[C@H]5[C@H](O)[C@H]3O)[C@H]3COC(=O)[C@H]23)OCO4)cc(OC)c1O [etoposide, reference compound] the IC50 (A549 cells; Homo sapiens) was 7.5 µM.
With “9-[(4,6-O-Ethylidene-β-D-glucopyranosyl)oxy]-5,8,8a,9-tetrahydro-5-(4-(1-(5-nitrothien-2-yl)ethoxy)-3,5-dimethoxyphenyl)furo[3′,4′:6,7]naphtha[2,3-d]-1,3-dioxol-6(5aH)-one [Example 1]” the etoposide production ([1]; under air) was “no etoposide production was detected”, the “rate of etoposide production” value ([1]; under nitrogen) was 17 μmol/min/mg protein and the IC50 (A549 cells) was greater than 20 µM. The drug production (human P450 reductase; under air) was “no drug production could be detected” and the “rate of etoposide production” value (human P450 reductase; under anoxia (nitrogen)) was 0.83 nmol min^−1 mg protein^−1.
With “9-[(4,6-O-Ethylidene-β-D-glucopyranosyl)oxy]-5,8,8a,9-tetrahydro-5-(4-(5-nitrothien-2-yl)methoxy)-3,5-dimethoxyphenyl)furo[3′,4′:6,7]naphtha[2,3-d]-1,3-dioxol-6(5aH)-one [Example 2]” the “Rate of drug release (pmol/min/mg protein) Anoxic” value ([2]; Anoxic (nitrogen)) was 388 pmol/min/mg protein and the “Rate of drug release (pmol/min/mg protein) Oxic” value ([2]; Oxic (air)) was 7 pmol/min/mg protein.

From US20090202571A1, “Bioreductively-activated prodrugs” (HOPNIC LABORATORY CO., LTD., priority 2004, published 2009)
